We go through 18 compounds from patent publication US20250051337A1 (priority 2021, published 2025).

The term IC50 denotes the concentration that inhibits the measured activity by half.

Some results are limits rather than exact numbers.

The target in one assay is STK3 (Homo sapiens (Human), UniProt Q13188). The experiment in a line: ADP-Glo kinase assay, STK3. Type of assay: biochemical.
Sequence of STK3 (Q13188 whole entry): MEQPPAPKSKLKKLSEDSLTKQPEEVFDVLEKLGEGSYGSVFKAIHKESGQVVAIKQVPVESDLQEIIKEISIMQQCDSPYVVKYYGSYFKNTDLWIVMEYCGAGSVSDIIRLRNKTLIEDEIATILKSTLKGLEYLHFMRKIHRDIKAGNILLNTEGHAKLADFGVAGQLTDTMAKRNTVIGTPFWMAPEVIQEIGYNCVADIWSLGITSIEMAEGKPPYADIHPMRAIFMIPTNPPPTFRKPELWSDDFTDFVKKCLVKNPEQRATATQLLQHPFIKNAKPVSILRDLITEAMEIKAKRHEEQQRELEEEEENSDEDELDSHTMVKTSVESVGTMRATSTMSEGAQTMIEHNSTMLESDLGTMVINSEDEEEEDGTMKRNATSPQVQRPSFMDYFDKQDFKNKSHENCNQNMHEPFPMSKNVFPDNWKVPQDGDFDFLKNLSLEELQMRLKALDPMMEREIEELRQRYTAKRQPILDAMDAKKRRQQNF
Details: not given
As for the experimental part:
(§1) The STK3 kinase assay was performed in 5 μL reaction buffer containing 50 ng recombinant human STK3 protein (full length, SignalChem #S24-10G; Richmond, Canada), 250 μg/mL myelin basic protein (Sigma-Aldrich #M1891; St. Louis, MO, USA), and 50 μM ATP (Sigma-Aldrich #A7699). The STK4 kinase assay was performed in 5 μL reaction buffer containing 50 ng recombinant human STK4 protein (full length, SignalChem #S25-10G), 300 μg/mL Axltide (SignalChem #A16-58), and 50 μM ATP. […] Three experiments were performed, each in triplicate.
`Cc1ccc(-c2c[nH]c3ncnc(N4CCOCC4)c23)cc1` [Compound 9, 4-(5-(p-tolyl)-7H-pyrrolo[2,3-d]pyrimidin-4-yl)morpholine] displayed an IC50 of 1 to 5 µM.

Still in this assay, the particulars now being: ADP-Glo, 50 μM ATP; read-out: STK3 IC50.
For the compound `Clc1cccc(-c2c[nH]c3ncnc(NCc4cnco4)c23)c1` [Compound 75, 5-(3-chlorophenyl)-N-(oxazol-5-ylmethyl)-7H-pyrrolo[2,3-d]pyrimidin-4-amine], the half-maximal inhibitory concentration (IC50) is over 5 µM.
In the case of `Clc1cc(-c2c[nH]c3ncnc(N4CCOCC4)c23)ccn1` [Compound 31, 4-(5-(2-chloropyridin-4-yl)-7H-pyrrolo[2,3-d]pyrimidin-4-yl)morpholine], the IC50 fell in the range of 1 to 5 µM.
Turning to `Clc1cccc(-c2c[nH]c3ncnc(NCC4CCCCCC4)c23)c1` [Compound 84, 5-(3-chlorophenyl)-N-(cycloheptylmethyl)-7H-pyrrolo[2,3-d]pyrimidin-4-amine], the IC50 is over 5 µM.
Same read-out and setting: next, `Clc1cccc(-c2c[nH]c3ccnc(N4CCOCC4)c23)c1` [Compound 22, 4-(3-(3-Chlorophenyl)-1H-pyrrolo[3,2-c]pyridin-4-yl)morpholin]: over 5 µM; `Clc1cccc(-c2csc3ncnc(N4CCOCC4)c23)c1` [Compound 20, 4-(5-(3-Chlorophenyl)thieno[2,3-d]pyrimidin-4-yl)morpholine]: over 5 µM; `CCN(CCO)c1ncnc2[nH]cc(-c3cccc(Cl)c3)c12` [Compound 114, 2-((5-(3-chlorophenyl)-7H-pyrrolo[2,3-d]pyrimidin-4-yl)(ethyl)amino)ethan-1-ol]: under 1 µM.
The same measure, in the same setting: in the case of `COc1cccc(-c2c[nH]c3ncnc(N4CCOCC4)c23)c1` [Compound 8, 4-(5-(3-Methoxyphenyl)-7H-pyrrolo[2,3-d]pyrimidin-4-yl)morpholine] it was under 1 µM.
Consider `c1nc(N2CCOCC2)c2c(-c3ccoc3)c[nH]c2n1` [Compound 14, 4-(5-(Furan-3-yl)-7H-pyrrolo[2,3-d]pyrimidin-4-yl)morpholine], for which the IC50 was under 1 µM.
Same read-out and setting: next, `Clc1cccc(-c2c[nH]c3ncnc(NCC4CC4)c23)c1` [Compound 18, 5-(3-Chlorophenyl)-N-(cyclopropylmethyl)-7H-pyrrolo[2,3-d]pyrimidin-4-amine]: under 1 µM.
`Fc1ccc(-c2c[nH]c3ncnc(N4CCOCC4)c23)cc1` [Compound 10, 4-(5-(4-Fluorophenyl)-7H-pyrrolo[2,3-d]pyrimidin-4-yl)morpholine]: the IC50 was under 1 µM.
Same read-out and setting: next, `CC1(O)CCN(c2ncnc3[nH]cc(-c4cccc(Cl)c4)c23)CC1` [Compound 103, 1-(5-(3-chlorophenyl)-7H-pyrrolo[2,3-d]pyrimidin-4-yl)-4-methylpiperidin-4-ol]: under 1 µM.
`CN(C)c1ncnc2[nH]cc(-c3cccc(Cl)c3)c12` [Compound 17, 5-(3-Chlorophenyl)-N,N-dimethyl-7H-pyrrolo[2,3-d]pyrimidin-4-amine]: the IC50 is under 1 µM.
In the case of `Fc1ccccc1-c1c[nH]c2ncnc(N3CCOCC3)c12` [Compound 3, 4-(5-(2-Fluorophenyl)-7H-pyrrolo[2,3-d]pyrimidin-4-yl)morpholine], the concentration for half-maximal inhibition (IC50) was under 1 µM.
On the same count and under the same terms, next, `c1csc(-c2c[nH]c3ncnc(N4CCOCC4)c23)c1` [Compound 12, 4-(5-(Thiophen-2-yl)-7H-pyrrolo[2,3-d]pyrimidin-4-yl)morpholine]: under 1 µM.
On the same count and under the same terms, next, `Clc1cccc(-c2coc3ncnc(N4CCOCC4)c23)c1` [Compound 21, 5-(3-Chlorophenyl)-4-morpholinofuro[2,3-d]pyrimidine]: over 5 µM; `c1coc(-c2c[nH]c3ncnc(N4CCOCC4)c23)c1` [Compound 13, 4-(5-(Furan-2-yl)-7H-pyrrolo[2,3-d]pyrimidin-4-yl)morpholine]: under 1 µM; `COc1ccccc1-c1c[nH]c2ncnc(N3CCOCC3)c12` [Compound 4, 4-(5-(2-Methoxyphenyl)-7H-pyrrolo[2,3-d]pyrimidin-4-yl)morpholine]: under 1 µM.

For another assay, the target named is STK4 (Homo sapiens (Human), UniProt Q13043). The experiment in a line: ADP-Glo kinase assay, STK4. Type of assay: biochemical. The following applies: ADP-Glo, 50 μM ATP; read-out: STK4 IC50. As for the experimental part: as §1
Sequence of STK4 (Q13043 whole entry): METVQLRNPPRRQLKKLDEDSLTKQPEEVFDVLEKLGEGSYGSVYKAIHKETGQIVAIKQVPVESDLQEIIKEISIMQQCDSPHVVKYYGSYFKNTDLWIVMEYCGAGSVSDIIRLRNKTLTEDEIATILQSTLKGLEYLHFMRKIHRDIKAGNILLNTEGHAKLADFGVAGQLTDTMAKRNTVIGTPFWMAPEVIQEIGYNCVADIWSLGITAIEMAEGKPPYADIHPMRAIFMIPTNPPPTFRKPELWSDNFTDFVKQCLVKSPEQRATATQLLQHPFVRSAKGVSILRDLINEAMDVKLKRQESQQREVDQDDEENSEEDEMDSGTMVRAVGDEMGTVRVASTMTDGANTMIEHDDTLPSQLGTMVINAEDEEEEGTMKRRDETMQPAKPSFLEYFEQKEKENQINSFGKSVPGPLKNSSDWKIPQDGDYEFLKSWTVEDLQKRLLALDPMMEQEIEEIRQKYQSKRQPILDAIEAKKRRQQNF
For orientation: ADP-Glo first removes unused ATP, then detects ADP through luciferase.
For `Clc1cccc(-c2c[nH]c3ncnc(NCc4cnco4)c23)c1` [Compound 75, 5-(3-chlorophenyl)-N-(oxazol-5-ylmethyl)-7H-pyrrolo[2,3-d]pyrimidin-4-amine], the IC50 is over 5 µM.
As to `Clc1cc(-c2c[nH]c3ncnc(N4CCOCC4)c23)ccn1` [Compound 31, 4-(5-(2-chloropyridin-4-yl)-7H-pyrrolo[2,3-d]pyrimidin-4-yl)morpholine], the IC50 lay within 1 to 5 µM.
On the same count and under the same terms, next, `Clc1cccc(-c2c[nH]c3ncnc(NCC4CCCCCC4)c23)c1` [Compound 84, 5-(3-chlorophenyl)-N-(cycloheptylmethyl)-7H-pyrrolo[2,3-d]pyrimidin-4-amine]: over 5 µM.
